Results reported in article PMC3723128 (Journal of medicinal chemistry, 2013).

Assays:
Type in all cases: biochemical
[1] = molecular target: recombinant pjDHFR (Pneumocystis jirovecii, UniProt Q9UUP5); assay: Inhibition of recombinant pjDHFR
[2] = molecular target: T1, recombinant hDHFR (Homo sapiens, UniProt P00374); assay: Inhibition of recombinant hDHFR; details: compared to unsubstituted phenyl compound 4
T1 sequence (P00374 1-187): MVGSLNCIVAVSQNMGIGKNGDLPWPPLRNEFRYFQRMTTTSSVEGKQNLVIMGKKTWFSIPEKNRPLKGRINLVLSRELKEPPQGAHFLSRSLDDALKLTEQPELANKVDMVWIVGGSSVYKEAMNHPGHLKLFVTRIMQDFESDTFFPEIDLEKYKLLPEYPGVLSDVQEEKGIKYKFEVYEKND

[3] = molecular target: T2, maDHFR (Mycobacterium avium, UniProt O30463); assay: Inhibition of maDHFR
T2 sequence (O30463 1-181): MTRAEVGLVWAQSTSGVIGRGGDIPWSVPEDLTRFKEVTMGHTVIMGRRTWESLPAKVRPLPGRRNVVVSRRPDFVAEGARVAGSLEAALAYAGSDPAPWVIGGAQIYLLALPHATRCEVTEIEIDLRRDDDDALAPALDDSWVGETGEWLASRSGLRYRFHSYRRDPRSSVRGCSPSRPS

COc1cc(Nc2cnc3nc(N)nc(N)c3c2)cc(OC)c1OC [Compound 8, N^6-(3,4,5-trimethoxyphenyl)pyrido[2,3-d]pyrimidine-2,4,6-triamine]
h/pj selectivity ratio ([1]; IC50 hDHFR / IC50 pjDHFR): 12.7

Nc1nc(N)c2cc(Nc3ccc4ccccc4c3)cnc2n1 [Compound 11, N^6-2-naphthylpyrido[2,3-d]pyrimidine-2,4,6-triamine]
fold loss in potency against hDHFR [2]: 10 fold

Nc1nc(N)c2cc(Nc3cccc4ccccc34)cnc2n1 [Compound 13, N^6-1-naphthylpyrido[2,3-d]pyrimidine-2,4,6-triamine]
fold loss in potency against hDHFR [2]: 10 fold

CN(c1ccccc1)c1cnc2nc(N)nc(N)c2c1 [Compound 16, N^6-methyl-N^6-phenylpyrido[2,3-d]pyrimidine-2,4,6-triamine]
fold more potent than TMP against pjDHFR [1]: about 50 fold

COc1cc(N(C)c2cnc3nc(N)nc(N)c3c2)cc(OC)c1OC [Compound 20, N^6-methyl-N^6-(3,4,5-trimethoxyphenyl)pyrido[2,3-d]pyrimidine-2,4,6-triamine]
inhibitory potency against maDHFR [3]: subnanomolar

CN(c1cnc2nc(N)nc(N)c2c1)c1cccc2ccccc12 [Compound 24, N^6-methyl-N^6-1-naphthylpyrido[2,3-d]pyrimidine-2,4,6-triamine]
rl/ma selectivity ratio ([3]; IC50 rlDHFR / IC50 maDHFR): 10.3

CN(c1cc(F)c(F)c(F)c1)c1cnc2nc(N)nc(N)c2c1 [Compound 26, N^6-methyl-N^6-(3,4,5-trifluorophenyl)pyrido[2,3-d]pyrimidine-2,4,6-triamine]
fold more selective for pjDHFR than PTX [1]: 18 fold
fold difference in potency for pjDHFR made by the N9-Me moiety ([1]; pairs 16/4 and 26/15, from IC50 values in Table 5): ~200 fold
